Patent US12194080B2, “Methods for identification, assessment, prevention, and treatment of metabolic disorders using PM20D1 and N-lipidated amino acids” (Dana-Farber Cancer Institute, Inc., priority 2015, dated 2025)

Tests used:
[1] = test system: differentiated primary iWAT cells; assay: Cellular oxygen consumption rate (Seahorse XF24), differentiated primary iWAT adipocytes; assay type: cell-based, mouse; conditions: 50 μM, in presence of oligomycin (1 μM)
Procedure: (§1) C2C12, U2O5, and 293A cells were cultured in DMEM with 10% FBS and pen/strep. Primary inguinal (iWAT) and brown (BAT) adipocytes were obtained as follows. The stromal-vascular fraction of inguinal (iWAT) pad from 4-12 week old male mice was dissected, minced, and digested for 45 min. at 37° C. in PBS containing 10 mM CaCl2, 2.4 U/ml dispase II (Roche), and 1.5 U/ml collagenase D (Roche). The stromal-vascular fraction of brown fat (BAT) pads from newborn (P1-P14) pups was dissected, minced, and digested for 45 min at 37° C. in PBS containing 1.3 mM CaCl2, 120 mM NaCl, 5 mM KCl, 5 mM glucose, 100 mM HEPES, 4% BSA, and 1.5 mg/ml collagenase B (Roche). Digested tissue was diluted with adipocyte culture media (DMEM/F-12, GlutaMAX™ supplement, Life Technologies, with 10% FBS and pen/strep) and centrifuged (600×g for 10 min.). The pellet was resuspended in 10 ml adipocyte culture media, strained through a 40 μm filter, and plated. Differentiation was induced by application of an adipogenic cocktail containing 5 μg/ml insulin (Sigma), 5 μM dexamethasone (Sigma), 250 μM isobutylmethylxanthine (Sigma), and 1 μM rosiglitazone (Cayman) for 2 days. Two days after induction, cells were maintained in adipocyte culture media containing 5 μg/ml insulin and 1 μM rosiglitazone.
(§2) Cellular oxygen consumption rates were determined using an XF24 Extracellular Flux Analyzer (Seahorse Biosciences). Oligomycin was purchased from EMD Millipore, and FCCP and rotenone were purchased from Sigma. C2C12 or U2OS cells were seeded at 30,000 or 50,000 cells/well, respectively in an XF24 cell culture microplate (V7-PS, Seahorse Bioscience) and analyzed the following day. Primary iWAT or BAT adipocytes were seeded at 15,000 cells/well, differentiation was induced the following day as described, and the cells were analyzed on day 5. On the day of analysis, the cells were washed once with Seahorse respiration buffer (8.3 g/1 DMEM, 1.8 g/l NaCl, 1 mM pyruvate, 20 mM glucose, pen/strep), placed in 0.5 ml Seahorse respiration buffer, and incubated in a CO2-free incubator for 1 hr. Port injection solutions were prepared as follows (final concentrations in assay in parentheses): 10 μM oligomycin (1 μM final), […] amino acid (50 μM final), 2 μM FCCP (0.2 μM final), and 30 μM rotenone (3 μM final). The Seahorse program was run as follows: basal measurement, 3 cycles; inject port A (oligomycin), 3 cycles; inject port B (compounds), 8 cycles; inject port C (FCCP), 3 cycles; inject port D (rotenone), 3 cycles. Each cycle consisted of mix 4 min, wait 0 min, and measure 2 min. For data expressed as a percentage of oligomycin-treated basal, the respiration at cycle 6 was normalized to 100%, and the maximum respiration at any time point between cycles 7 and 15 inclusive was used.

[2] = test system: primary BAT adipocytes from UCP1-WT mice; assay: Cellular oxygen consumption rate, primary BAT adipocytes from UCP1-WT mice; assay type: cell-based, mouse; conditions: UCP1-WT cells, 50 μM
Procedure: (§3) C2C12, U2O5, and 293A cells were cultured in DMEM with 10% FBS and pen/strep. Primary inguinal (iWAT) and brown (BAT) adipocytes were obtained as follows. The stromal-vascular fraction of inguinal (iWAT) pad from 4-12 week old male mice was dissected, minced, and digested for 45 min. at 37° C. in PBS containing 10 mM CaCl2, 2.4 U/ml dispase II (Roche), and 1.5 U/ml collagenase D (Roche). The stromal-vascular fraction of brown fat (BAT) pads from newborn (P1-P14) pups was dissected, minced, and digested for 45 min at 37° C. in PBS containing 1.3 mM CaCl2, 120 mM NaCl, 5 mM KCl, 5 mM glucose, 100 mM HEPES, 4% BSA, and 1.5 mg/ml collagenase B (Roche). […]
(§4) Cellular oxygen consumption rates were determined using an XF24 Extracellular Flux Analyzer (Seahorse Biosciences). […] C2C12 or U2OS cells were seeded at 30,000 or 50,000 cells/well, respectively in an XF24 cell culture microplate (V7-PS, Seahorse Bioscience) and analyzed the following day. Primary iWAT or BAT adipocytes were seeded at 15,000 cells/well, differentiation was induced the following day as described, and the cells were analyzed on day 5. […] For data expressed as a percentage of oligomycin-treated basal, the respiration at cycle 6 was normalized to 100%, and the maximum respiration at any time point between cycles 7 and 15 inclusive was used.

[3] = test system: primary BAT adipocytes from UCP1-KO mice; assay: Cellular oxygen consumption rate, primary BAT adipocytes from UCP1-KO mice; assay type: cell-based, mouse; conditions: UCP1-KO cells, 50 μM
Procedure: as §3, §4

[4] = test system: primary inguinal fat cells, primary BAT cells, C2C12 cells, and U2OS cells; assay: Uncoupled respiration cellular assays (variety of cell types); assay type: cell-based; conditions: N-acyl amino acids at 10-100 uM
[5] = test system: C2C12 cells; assay: Cellular oxygen consumption rate (uncoupled respiration), C2C12 cells; assay type: cell-based, mouse; conditions: 50 μM, after oligomycin 1 μM
Procedure: as §1, §2

[6] = test system: proteins in C2C12 cells; assay: UV crosslinking with photo-probe and identification of N-acyl amino acid protein targets (TAMRA in-gel fluorescence, LC-MS/MS); assay type: binding, mouse; conditions: photo-probe 50 μM, 20 min, UV irradiation 10 min
Procedure: Confluent 6-cm plates of C2C12 cells were washed twice with PBS and then treated with photo-probe (20 μM) with or without competitor (C20:4-Phe, 100 μM) in serum free media at 37° C. for 20 min. The media was aspirated. Cells were then placed on ice and UV-irradiated (10 min, UV Stratalinker 2400). Control samples were left on ice under ambient light.
Following UV irradiation, cells were then scraped, centrifuged (5 min, 1,400×g), washed once with cold PBS, and centrifuged again (5 min, 1,400×g). The cell pellets were resuspended in 0.3 ml PBS and sonicated. Click chemistry was performed as follows: To 50 μl cell lysate at 1 mg/ml was added 3 μl TBTA (stock solution: 1.7 mM in 4:1 v/v DMSO:t-BuOH), 1 ul CuSO4 (stock solution: 50 mM in water), 1 ul TCEP (freshly prepared, stock solution: 50 mM), and 1 ul TAMRA-N3 (stock solution: 1.25 mM in DMSO). Reactions were incubated at room temperature for 1 h, and then quenched with 4× SDS loading buffer (17 ul). In-gel TAMRA fluorescence was visualized on a Typhoon™ FLA 9000 scanner (GE Healthcare Life Sciences).

[7] = biological target: T1, human PM20D1 (Homo sapiens, UniProt Q6GTS8); assay: In vitro N-acyl amino acid synthase activity of human PM20D1; assay type: biochemical; conditions: purified human PM20D1-flag, oleate 1.5 mM, head group 100 μM
T1 construct: host or cells: 293A cells, transient transfection; purified from conditioned medium
T1 sequence (Q6GTS8 26-502): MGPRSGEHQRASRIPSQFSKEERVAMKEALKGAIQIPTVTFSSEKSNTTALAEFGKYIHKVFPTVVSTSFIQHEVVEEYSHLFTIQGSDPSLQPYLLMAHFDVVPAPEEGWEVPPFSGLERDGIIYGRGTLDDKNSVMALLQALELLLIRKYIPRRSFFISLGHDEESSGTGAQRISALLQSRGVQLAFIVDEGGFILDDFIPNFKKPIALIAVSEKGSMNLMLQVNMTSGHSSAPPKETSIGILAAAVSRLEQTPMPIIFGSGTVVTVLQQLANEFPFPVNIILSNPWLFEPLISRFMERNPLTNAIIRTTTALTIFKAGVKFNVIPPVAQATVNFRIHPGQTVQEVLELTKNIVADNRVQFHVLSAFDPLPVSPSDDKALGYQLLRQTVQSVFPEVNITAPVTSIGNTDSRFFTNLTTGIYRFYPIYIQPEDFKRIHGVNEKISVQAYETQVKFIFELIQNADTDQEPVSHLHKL
Procedure: (§5) The concentrated media was centrifuged to remove debris (600×g, 10 min, 4° C.) and the supernatant containing PM20D1-flag was decanted into a new tube. PM20D1-Flag was immunoaffinity purified overnight at 4° C. from the concentrated media using magnetic Flag-M2 beads (Sigma Aldrich). The beads were collected, washed three times in PBS, eluted with 3× Flag peptide ([…] in PBS, Sigma Aldrich), aliquoted, and stored at −80° C. For the purification of human PM20D1-flag, hPM20D1-flag plasmid (Origene) was transiently transfected into 293A cells. After two days, the media was changed, harvested 24 h later, concentrated, and purified exactly as described above.
(§6) In vitro PM20D1-catalyzed synthesis of N-acyl amino acids was measured by incubating purified PM20D1 protein with oleate (1.5 mM) and phenylalanine (0.1 mM) in PBS (to 100 μl final volume) at 37° C. for 1.5 hrs. In vitro PM20D1-catalyzed N-acyl amino acid hydrolysis was measured by incubating purified PM20D1 protein with the indicated N-acyl amino acid (0.1 mM) in PBS (to 100 μl final volume) at 37° C. for 1.5 hrs. Reactions were terminated by placing the vials at −80° C. and the products generated in vitro were analyzed by mass spectroscopy (MS).
(§7) Briefly, frozen serum (30 μl) for polar metabolomic analyses were extracted in 160 μl of 1:1 acetonitrile/methanol with inclusion of internal standard D3, ^15N-serine (1 nmol). […]

[8] = biological target: T1, human PM20D1; assay: In vitro N-acyl amino acid hydrolase activity of human PM20D1; assay type: biochemical; conditions: purified human PM20D1-flag, substrate 100 μM
Procedure: as §5, §6, §7

## CCCCC/C=C\C/C=C\C/C=C\C/C=C\CCCC(=O)N[C@@H](Cc1ccccc1)C(=O)O [C20:4-Phe, N-arachidonoyl phenylalanine]
[1]
  maximal OCR versus DMSO at the same time point: 214%
  maximal OCR versus oligomycin-treated basal respiration: 243%
[2]
  maximal OCR versus the oligomycin-treated basal respiration: 221%
[3]
  maximal OCR versus the oligomycin-treated basal respiration: 214%
[4]
  uncoupled respiration in cells: increased uncoupled respiration

## C#CCCCCCCCCCCCCCCCC(=O)N[C@@H](CC1(C)N=N1)C(=O)O [photo-probe, (S)-3-(3-methyl-3H-diazirin-3-yl)-2-(octadec-17-ynamido)propanoic acid]
[5]
  uncoupling activity (uncoupled respiration): competent inducer of uncoupled respiration
[6]
  crosslinking assessed by in-gel TAMRA fluorescence: robust, UV-dependent crosslinking

B1: Human PM20D1: purified, recombinant human PM20D1-flag from transiently transfected 293A cells (protein, UniProt Q6GTS8 26-502, looked up)
N-fatty-acyl-amino acid …: MGPRSGEHQRASRIPSQFSKEERVAMKEALKGAIQIPTVTFSSEKSNTTALAEFGKYIHKVFPTVVSTSFIQHEVVEEYSHLFTIQGSDPSLQPYLLMAHFDVVPAPEEGWEVPPFSGLERDGIIYGRGTLDDKNSVMALLQALELLLIRKYIPRRSFFISLGHDEESSGTGAQRISALLQSRGVQLAFIVDEGGFILDDFIPNFKKPIALIAVSEKGSMNLMLQVNMTSGHSSAPPKETSIGILAAAVSRLEQTPMPIIFGSGTVVTVLQQLANEFPFPVNIILSNPWLFEPLISRFMERNPLTNAIIRTTTALTIFKAGVKFNVIPPVAQATVNFRIHPGQTVQEVLELTKNIVADNRVQFHVLSAFDPLPVSPSDDKALGYQLLRQTVQSVFPEVNITAPVTSIGNTDSRFFTNLTTGIYRFYPIYIQPEDFKRIHGVNEKISVQAYETQVKFIFELIQNADTDQEPVSHLHKL
modifications: FLAG tag
notes: purified, recombinant human PM20D1-flag from transiently transfected 293A cells
[7]
  N-acyl amino acid synthase activity: possessed N-acyl amino acid synthase and hydrolase activities
[8]
  N-acyl amino acid hydrolase activity: possessed N-acyl amino acid synthase and hydrolase activities
